Target: HPK1 (Homo sapiens (Human), UniProt Q92918)
Test: HPK1 Lantha binding assay ("Lanth")
Details: binding assays; Morrison Ki fit
Procedure, shortened: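 TR-FRET binding competition using 2 nM HPK1, 2 nM Eu-anti-GST antibody and 15 nM Tracer222 at 23 °C. Compound was incubated 1 h with enzyme and antibody, then 1 h after tracer addition, with an 11-point 5-fold dilution series. Ki obtained from a Morrison fit that corrects for tracer concentration and Kd.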

Chain of HPK1 (Q92918 1-346 limits assumed): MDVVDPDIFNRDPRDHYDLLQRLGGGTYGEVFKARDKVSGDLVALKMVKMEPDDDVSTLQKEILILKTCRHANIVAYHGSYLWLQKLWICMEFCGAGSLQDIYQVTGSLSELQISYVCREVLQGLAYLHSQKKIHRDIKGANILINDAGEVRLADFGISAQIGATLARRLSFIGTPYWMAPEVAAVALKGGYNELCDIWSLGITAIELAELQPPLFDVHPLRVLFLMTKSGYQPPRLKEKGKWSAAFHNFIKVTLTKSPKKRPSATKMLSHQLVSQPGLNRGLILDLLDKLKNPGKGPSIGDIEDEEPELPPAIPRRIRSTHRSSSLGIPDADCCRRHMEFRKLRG

SMILES | Ki [nM]
CNS(=O)(=O)c1ccc(-c2cnc3c(c2Cl)C2(CC=CC2)CN3)cc1 [Compound 188, 4-(4′-Chloro-1′,2′-dihydrospiro[cyclopentane-1,3′-pyrrolo[2,3-b]pyridin]-3-en-5′-yl)-N-methylbenzenesulfonamide] | 210
CCNS(=O)(=O)c1ccc(-c2cnc3c(c2Cl)C2(CC=CC2)CN3)cc1 [Compound 189, 4-(4′-Chloro-1′,2′-dihydrospiro[cyclopentane-1,3′-pyrrolo[2,3-b]pyridin]-3-en-5′-yl)-N-ethylbenzenesulfonamide] | 315
N#Cc1cccc(-c2cnc3c(c2Cl)C2(CC=CC2)CN3)c1 [Compound 190, 3-(4′-Chloro-1′,2′-dihydrospiro[cyclopentane-1,3′-pyrrolo[2,3-b]pyridin]-3-en-5′-yl)benzonitrile] | 359
CN(C)C(=O)c1c(N)ccc(-c2cnc3c(c2Cl)[C@]2(CC[C@@](C)(O)CC2)CN3)c1F [Compound 194a, 6-Amino-3-((1r,4r)-4′-chloro-4-hydroxy-4-methyl-1′,2′-dihydrospiro[cyclohexane-1,3′-pyrrolo[2,3-b]pyridin]-5′-yl)-2-fluoro-N,N-dimethylbenzamide] | 30.4
CN(C)C(=O)c1c(N)ccc(-c2cnc3c(c2Cl)[C@]2(CC[C@](C)(O)CC2)CN3)c1F [Compound 194b, 6-Amino-3-((1s,4s)-4′-chloro-4-hydroxy-4-methyl-1′,2′-dihydrospiro[cyclohexane-1,3′-pyrrolo[2,3-b]pyridin]-5′-yl)-2-fluoro-N,N-dimethylbenzamide] | 8.36
CN(C)C(=O)c1c(N)ccc(-c2cnc3c(c2Cl)C2(CCCCC2)CN3)c1F [Compound 200, 6-Amino-3-(4′-chloro-1′,2′-dihydrospiro[cyclohexane-1,3′-pyrrolo[2,3-b]pyridin]-5′-yl)-2-fluoro-N,N-dimethylbenzamide] | 4.76
O=S(=O)(c1ccc(-c2cnc3c(c2Cl)C2(CC=CC2)CN3)cc1)n1cccn1 [Compound 203, 5′-(4-((1H-Pyrazol-1-yl)sulfonyl)phenyl)-4′-chloro-1′,2′-dihydrospiro[cyclopentane-1,3′-pyrrolo[2,3-b]pyridin]-3-ene] | 885
OCC1(c2ccc(-c3cnc4c(c3Cl)C3(CC=CC3)CN4)cc2)CC1 [Compound 204, (1-(4-(4′-Chloro-1′,2′-dihydrospiro[cyclopentane-1,3′-pyrrolo[2,3-b]pyridin]-3-en-5′-yl)phenyl)cyclopropyl)methanol] | 285
CN(C)C(=O)c1ccc(-c2cnc3c(c2Cl)C2(CC=CC2)CN3)cc1F [Compound 205, 4-(4′-Chloro-1′,2′-dihydrospiro[cyclopentane-1,3′-pyrrolo[2,3-b]pyridin]-3-en-5′-yl)-2-fluoro-N,N-dimethylbenzamide] | 267
CN(C)C(=O)c1ccc(-c2cnc3c(c2Cl)C2(CC=CC2)CN3)c(F)c1 [Compound 206, 4-(4′-Chloro-1′,2′-dihydrospiro[cyclopentane-1,3′-pyrrolo[2,3-b]pyridin]-3-en-5′-yl)-3-fluoro-N,N-dimethylbenzamide] | 436
O=S(=O)(Nc1ccc(-c2cnc3c(c2Cl)C2(CC=CC2)CN3)cc1)C1CC1 [Compound 207, N-(4-(4′-Chloro-1′,2′-dihydrospiro[cyclopentane-1,3′-pyrrolo[2,3-b]pyridin]-3-en-5′-yl)phenyl)cyclopropanesulfonamide] | 87
O=S1(=O)CCCN1c1ccc(-c2cnc3c(c2Cl)C2(CC=CC2)CN3)cc1 [Compound 208, 2-(4-(4′-Chloro-1′,2′-dihydrospiro[cyclopentane-1,3′-pyrrolo[2,3-b]pyridin]-3-en-5′-yl)phenyl)isothiazolidine 1,1-dioxide] | 201
O=S(=O)(Nc1cccc(-c2cnc3c(c2Cl)C2(CC=CC2)CN3)c1)C1CC1 [Compound 209, N-(3-(4′-Chloro-1′,2′-dihydrospiro[cyclopentane-1,3′-pyrrolo[2,3-b]pyridin]-3-en-5′-yl)phenyl)cyclopropanesulfonamide] | 199
CS(=O)(=O)Nc1cccc(-c2cnc3c(c2Cl)C2(CC=CC2)CN3)c1 [Compound 210, N-(3-(4′-Chloro-1′,2′-dihydrospiro[cyclopentane-1,3′-pyrrolo[2,3-b]pyridin]-3-en-5′-yl)phenyl)methanesulfonamide] | 70.8
CC(=O)NCc1cccc(-c2cnc3c(c2Cl)C2(CC=CC2)CN3)c1 [Compound 211, N-(3-(4′-Chloro-1′,2′-dihydrospiro[cyclopentane-1,3′-pyrrolo[2,3-b]pyridin]-3-en-5′-yl)benzyl)acetamide] | 145
CC(=O)NCc1ccc(-c2cnc3c(c2Cl)C2(CC=CC2)CN3)cc1 [Compound 212, N-(4-(4′-Chloro-1′,2′-dihydrospiro[cyclopentane-1,3′-pyrrolo[2,3-b]pyridin]-3-en-5′-yl)benzyl)acetamide] | 112
CC(=O)NCCc1ccc(-c2cnc3c(c2Cl)C2(CC=CC2)CN3)cc1 [Compound 213, N-(4-(4′-chloro-1′,2′-dihydrospiro[cyclopentane-1,3′-pyrrolo[2,3-b]pyridin]-3-en-5′-yl)phenethyl)acetamide] | 286

SMILES | Ki [nM]
O=C(NCCO)c1ccc(-c2cnc3c(c2Cl)C2(CC=CC2)CN3)cc1 [Compound 214, 4-(4′-Chloro-1′,2′-dihydrospiro[cyclopentane-1,3′-pyrrolo[2,3-6]pyridin]-3-en-5′-yl)-N-(2-hydroxyethyl)benzamide] | 340
Clc1c(-c2ccc(-n3cccn3)cc2)cnc2c1C1(CC=CC1)CN2 [Compound 215, 5′-(4-(1H-Pyrazol-1-yl)phenyl)-4′-chloro-1′,2′-dihydrospiro[cyclopentane-1,3′-pyrrolo[2,3-b]pyridin]-3-ene] | 676
OCc1ccc(-c2cnc3c(c2Cl)C2(CC=CC2)CN3)c(F)c1 [Compound 216, (4-(4′-Chloro-1′,2′-dihydrospiro[cyclopentane-1,3′-pyrrolo[2,3-b]pyridin]-3-en-5′-yl)-3-fluorophenyl)methanol] | 330
CN(C)S(=O)(=O)Nc1cccc(-c2cnc3c(c2Cl)C2(CC=CC2)CN3)c1 [Compound 218, N-(3-(4′-Chloro-1′,2′-dihydrospiro[cyclopentane-1,3′-pyrrolo[2,3-b]pyridin]-3-en-5′-yl)phenyl)-N′,N′-dimethylsulfamide] | 230
OCc1cccc(-c2cnc3c(c2Cl)C2(CC=CC2)CN3)c1F [Compound 219, (3-(4′-Chloro-1′,2′-dihydrospiro[cyclopentane-1,3′-pyrrolo[2,3-b]pyridin]-3-en-5′-yl)-2-fluorophenyl)methanol] | 478
Clc1c(-c2ccc(COC3CCOCC3)cc2)cnc2c1C1(CC=CC1)CN2 [Compound 220, 4′-Chloro-5′-(4-(((tetrahydro-2H-pyran-4-yl)oxy)methyl)phenyl)-1′,2′-dihydrospiro[cyclopentane-1,3′-pyrrolo[2,3-b]pyridin]-3-ene] | 308
N#CCCNC(=O)c1ccc(-c2cnc3c(c2Cl)C2(CC=CC2)CN3)cc1 [Compound 221, 4-(4′-Chloro-1′,2′-dihydrospiro[cyclopentane-1,3′-pyrrolo[2,3-b]pyridin]-3-en-5′-yl)-N-(2-cyanoethyl)benzamide] | 303
CC(=O)Nc1cccc(-c2cnc3c(c2Cl)C2(CC=CC2)CN3)c1 [Compound 222, N-(3-(4′-Chloro-1′,2′-dihydrospiro[cyclopentane-1,3′-pyrrolo[2,3-b]pyridin]-3-en-5′-yl)phenyl)acetamide] | 275
COCCc1ccc(-c2cnc3c(c2Cl)C2(CC=CC2)CN3)cc1 [Compound 223, 4′-Chloro-5′-(4-(2-methoxyethyl)phenyl)-1′,2′-dihydrospiro[cyclopentane-1,3′-pyrrolo[2,3-b]pyridin]-3-ene] | 436
Nc1ccc(-c2cnc3c(c2Cl)C2(CC=CC2)CN3)cc1 [Compound 224, 4-(4′-Chloro-1′,2′-dihydrospiro[cyclopentane-1,3′-pyrrolo[2,3-b]pyridin]-3-en-5′-yl)aniline] | 126
Nc1ccc(-c2cnc3c(c2Cl)C2(CC=CC2)CN3)c(F)c1 [Compound 225, 4-(4′-Chloro-1′,2′-dihydrospiro[cyclopentane-1,3′-pyrrolo[2,3-b]pyridin]-3-en-5′-yl)-3-fluoroaniline] | 363
CN(C)C(=O)c1cccc(-c2cnc3c(c2Cl)C2(CC=CC2)CN3)c1 [Compound 226, 3-(4′-Chloro-1′,2′-dihydrospiro[cyclopentane-1,3′-pyrrolo[2,3-b]pyridin]-3-en-5′-yl)-N,N-dimethylbenzamide] | 14
CN(C)C(=O)c1cccc(-c2cnc3c(c2Cl)C2(CC=CC2)CN3)c1F [Compound 227, 3-(4′-Chloro-1′,2′-dihydrospiro[cyclopentane-1,3′-pyrrolo[2,3-b]pyridin]-3-en-5′-yl)-2-fluoro-N,N-dimethylbenzamide] | 11.2
O=C(c1ccc(-c2cnc3c(c2Cl)C2(CC=CC2)CN3)cc1Cl)N1CCC(O)CC1 [Compound 230, (2-Chloro-4-(4′-chloro-1′,2′-dihydrospiro[cyclopentane-1,3′-pyrrolo[2,3-b]pyridin]-3-en-5′-yl)phenyl)(4-hydroxypiperidin-1-yl)methanone] | 173
O=C(c1ccc(-c2cnc3c(c2Cl)C2(CC=CC2)CN3)cc1)N1CCOCC1 [Compound 231, (4-(4′-Chloro-1′,2′-dihydrospiro[cyclopentane-1,3′-pyrrolo[2,3-b]pyridin]-3-en-5′-yl)phenyl)(morpholino)methanone] | 447
O=C(c1cccc(-c2cnc3c(c2)C2(CC2)CN3)c1F)N1CCCCC1 [Compound 232, (3-(1′,2′-dihydrospiro[cyclopropane-1,3′-pyrrolo[2,3-b]pyridin]-5′-y1)-2-fluorophenyl)(piperidin-1-yl)methanone] | 33.7
Cc1c(-c2ccc(N)c(C(=O)N(C)C)c2F)cnc2c1C1(CCCCC1)CN2 [Compound 233, 6-Amino-2-fluoro-N,N-dimethyl-3-(4′-methyl-1′,2′-dihydrospiro[cyclohexane-1,3′-pyrrolo[2,3-b]pyridin]-5′-yl)benzamide] | 26.1

From US12208088B2 (Genentech, Inc., priority 2018, dated 2025)
